Experimental data reported in patent publication US20240240155A1, “Organoid-Derived Monolayers and Uses Thereof” (Hub Organoids IP B.V., priority 2021, published 2024).

Columns and labels:
ALK5 (TGF-βR1) = biological target: T1, ALK5 (TGF-βR1) (Homo sapiens, UniProt P36897); details: high concentrations; cited from earlier work
T1 sequence (P36897 34-503): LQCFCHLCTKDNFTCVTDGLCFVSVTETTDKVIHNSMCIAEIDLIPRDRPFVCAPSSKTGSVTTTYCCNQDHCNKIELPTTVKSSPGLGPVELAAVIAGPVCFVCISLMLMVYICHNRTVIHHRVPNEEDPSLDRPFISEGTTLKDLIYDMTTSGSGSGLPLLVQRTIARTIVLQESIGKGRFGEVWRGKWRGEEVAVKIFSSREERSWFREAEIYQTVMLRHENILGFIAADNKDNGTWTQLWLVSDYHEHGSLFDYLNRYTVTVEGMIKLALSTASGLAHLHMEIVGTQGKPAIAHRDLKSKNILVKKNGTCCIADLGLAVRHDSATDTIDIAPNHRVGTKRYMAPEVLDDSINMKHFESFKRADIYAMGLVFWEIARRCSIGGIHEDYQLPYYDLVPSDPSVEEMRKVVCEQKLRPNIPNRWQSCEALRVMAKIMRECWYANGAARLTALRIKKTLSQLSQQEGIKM

[1] = test system: IBD-PDO proximal colon epithelium monolayers; assay: Barrier function assay in IBD-PDO monolayers, TEER; type: cell-based, human; details: after 24 hours
Protocol: (§1) IBD patient-derived organoid (IBD-PDO) monolayer cultures from ileum, proximal and distal colon were established following the same protocols used in previous experiments. […] Their barrier integrity was measured at 5 and 24 hours followed by LY permeability and cell viability performed (FIGS. 10, 11).

[2] = test system: IBD-PDO derived distal colon epithelium monolayers; assay: Barrier function assay in IBD-PDO monolayers, TEER; type: cell-based, human; details: highest tofacitinib concentration
Protocol: (A-C) Transepithelial electrical resistance (TEER). (D-F) relative TEER value from the same Transwell before treatment after 5 and 24 hours. (G-I) Permeability and (J-L) cell viability of the same Transwell after 24 hours in response to treatments. Data represented as mean±SD for 3 technical replicates. A two-way ANOVA (Dunett's multiple comparisons test) was done on normalized TEER, all conditions were compared to the pre-treatment conditions. For permeability and cell viability data a one-way ANOVA (Dunett's multiple comparisons test) was used. ****P<0.0001; ***P<0.001; **P<0.01; *P<0.1; ns, not significant.
as §1

[3] = test system: IBD-PDO ileum epithelium monolayers; assay: Barrier function assay in IBD-PDO monolayers, LY permeability; type: cell-based, human; details: 0.1, 2 and 10 μM pre-treatment
[4] = test system: normal colon-derived epithelium monolayers; assay: Cytokine-induced barrier injury with tofacitinib pre-treatment, Lucifer Yellow permeability assay; type: cell-based, human
[5] = test system: IBD-PDO ileum epithelium monolayers; assay: Barrier function assay in IBD-PDO monolayers, TEER; type: cell-based, human; details: 0.1, 2 and 10 μM pre-treatment
Protocol: (A) Transepithelial electrical resistance (TEER). (B) relative TEER value from the same transwell before treatment after 5 and 24 hours. (C) Permeability and (D) cell viability of the same Transwell after 24 hours in response to treatments. Data represented as mean±SD for 3 technical replicates. A two-way ANOVA (Dunett's multiple comparisons test) was done on normalized TEER, all conditions were compared to the pre-treatment conditions. For permeability and cell viability data a one-way ANOVA (Dunett's multiple comparisons test) was used. ****P<0.0001; ***P<0.001; **P<0.01; *P<0.1; ns, not significant.
as §1

[6] = test system: normal ileum-derived organoid epithelium monolayers; assay: Cytokine-induced barrier injury with tofacitinib pre-treatment, LY permeability; type: cell-based, human; details: 10 μM tofacitinib, IFN-γ containing cytokine cocktails
[7] = test system: IBD-PDO ileum epithelium monolayers; assay: Barrier function assay in IBD-PDO monolayers, cell viability; type: cell-based, human; details: 0.1, 2 and 10 μM pre-treatment
[8] = test system: IBD-PDO derived distal colon epithelium monolayers; assay: as above; type: cell-based, human; details: 0.1, 2 and 10 μM pre-treatment
[9] = test system: normal colon-derived epithelium monolayers; assay: Cytokine-induced barrier injury with tofacitinib pre-treatment, TEER; type: cell-based, human
Protocol: (A) Transepithelial electrical resistance (TEER). (B) relative TEER value from the same Transwell before treatment after 5 and 24 hours. (C) Permeability and (D) Cell viability of the same Transwell after 24 hours in response to treatments. […] (E) TEER (top), permeability (middle) and cell viability (bottom) dose response curves. EC50 values were calculated by Non-linear regression log(inhibitor) versus response variable slope (four parameters) of three technical replicates.
(A) Transepithelial electrical resistance (TEER). (B) Relative TEER values from the same Transwell before treatment after 5 and 24 hours. (C) Permeability and (D) Cell viability of the same Transwell after 24 hours in response to treatments. […] An unpaired t-test was performed on permeability and cell viability data. A one-way ANOVA (Dunett's multiple comparisons test) was done on normalized TEER, permeability and cell viability data. *P<0.05, **P<0.01, ***P<0.001.
At this point, the culture medium was changed to cCDM until epithelium monolayer barrier integrity further increased (TEER >1000 Ω·cm^2). […] These measurements were normalized to the TEER value of the same Transwell before measurement, to correct for well-to-well TEER variability (FIG. 7B). Paracellular permeability was measured by the Lucifer Yellow (LY) permeability assay after 24 hours (FIG. 7C). Subsequently, monolayer cell viability was measured by the ATP Luminescent Assay, CellTiter-Glo 3D, to monitor for loss of barrier function due to cell death, as opposed to increased paracellular permeability. […] (FIG. 7D).

[10] = test system: IBD-PDO derived distal colon epithelium monolayers; assay: Barrier function assay in IBD-PDO monolayers, LY permeability; type: cell-based, human; details: 0.1, 2 and 10 μM pre-treatment
[11] = test system: normal colon-derived epithelium monolayers; type: cell-based, human; details: cytokine-treated colon monolayers
[12] = test system: normal ileum-derived organoid epithelium monolayers; assay: Cytokine-induced barrier injury with tofacitinib pre-treatment, TEER; type: cell-based, human
Protocol: (A) Transepithelial electrical resistance (TEER). (B) Relative TEER values from the same Transwell before treatment after 5 and 24 hours. (C) Permeability and (D) Cell viability of the same Transwell after 24 hours in response to treatments. Data are represented as mean±SD for 3 technical replicates. An unpaired t-test was performed on permeability and cell viability data. A one-way ANOVA (Dunett's multiple comparisons test) was done on normalized TEER, permeability and cell viability data. *P<0.05, **P<0.01, ***P<0.001.
The experimental condition above were reproduced by repeating the same experiment with same normal colon-derived epithelium monolayer and extended to normal ileum-derived organoid epithelium monolayers from the same donor, as in the previous experiment.
To address IFN-γ specificity in inducing barrier injury, TNF-α/IL-1α combination (data not shown) was included in addition to IFN-γ/TNF-α/IL-1α and IFN-γ/TNF-α.

P-gp [13] = biological target: T2, P-gp (Homo sapiens, UniProt P08183); assay: Calcein transport assay, pulse-chase format, lung-C monolayers; type: cell-based; details: T=2 hours
T2 construct: endogenous in cells; host or cells: human lung organoid-derived monolayer (donor lung-C)
T2 sequence (P08183 whole entry): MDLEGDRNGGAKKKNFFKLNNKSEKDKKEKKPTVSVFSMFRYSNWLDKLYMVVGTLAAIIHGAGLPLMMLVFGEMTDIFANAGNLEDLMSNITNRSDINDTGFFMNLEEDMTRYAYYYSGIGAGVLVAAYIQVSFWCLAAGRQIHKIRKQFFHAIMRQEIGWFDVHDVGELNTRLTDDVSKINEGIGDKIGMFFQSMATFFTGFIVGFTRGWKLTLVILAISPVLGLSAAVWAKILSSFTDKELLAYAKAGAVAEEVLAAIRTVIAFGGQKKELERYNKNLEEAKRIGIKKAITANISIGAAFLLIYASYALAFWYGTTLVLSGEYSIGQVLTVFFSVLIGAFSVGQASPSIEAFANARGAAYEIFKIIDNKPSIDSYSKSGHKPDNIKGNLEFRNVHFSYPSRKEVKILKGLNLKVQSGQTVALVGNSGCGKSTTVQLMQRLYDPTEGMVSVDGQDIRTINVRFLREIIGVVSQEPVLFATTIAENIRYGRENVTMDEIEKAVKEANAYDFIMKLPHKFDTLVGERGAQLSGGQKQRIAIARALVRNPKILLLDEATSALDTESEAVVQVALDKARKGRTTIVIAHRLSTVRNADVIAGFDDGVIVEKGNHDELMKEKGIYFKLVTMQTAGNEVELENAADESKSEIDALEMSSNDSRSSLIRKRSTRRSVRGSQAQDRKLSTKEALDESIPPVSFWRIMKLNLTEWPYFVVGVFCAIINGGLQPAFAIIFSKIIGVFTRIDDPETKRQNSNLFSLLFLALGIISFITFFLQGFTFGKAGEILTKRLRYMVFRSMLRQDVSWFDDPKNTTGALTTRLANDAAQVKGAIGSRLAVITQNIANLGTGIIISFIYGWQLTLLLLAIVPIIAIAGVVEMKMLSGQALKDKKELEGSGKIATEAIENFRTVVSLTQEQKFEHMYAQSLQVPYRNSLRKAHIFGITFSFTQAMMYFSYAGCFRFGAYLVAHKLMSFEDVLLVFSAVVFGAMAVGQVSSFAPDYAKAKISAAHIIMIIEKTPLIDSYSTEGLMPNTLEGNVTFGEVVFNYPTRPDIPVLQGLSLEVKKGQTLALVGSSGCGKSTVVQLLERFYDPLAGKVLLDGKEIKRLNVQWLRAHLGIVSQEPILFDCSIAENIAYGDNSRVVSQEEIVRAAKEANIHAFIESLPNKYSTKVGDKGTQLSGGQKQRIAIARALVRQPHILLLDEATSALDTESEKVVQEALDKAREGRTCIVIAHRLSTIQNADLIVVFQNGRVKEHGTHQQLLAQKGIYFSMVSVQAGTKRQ

P-gp [14] = biological target: T2, P-gp; assay: Calcein transport assay, kidney-C monolayers; type: cell-based; details: 1 μM, 30 mins; KEM or DAC conditions, day 7
P-gp [15] = biological target: T2, P-gp; assay: Calcein transport assay, accumulation format, lung-C monolayers; type: cell-based; details: 1 μM, 30 mins; LuM LLI and LuM ALI
P-gp [16] = biological target: T2, P-gp; assay: Rhodamine transport assay, kidney-C monolayers; type: cell-based; details: 1 μM, 30 mins; day 7
[17] = test system: Human gastro-intestinal tract organoid-derived monolayers; assay: Polarisation assay: TEER and Lucifer yellow permeability after apical or basolateral treatment; type: cell-based; details: eCDM; apical, basolateral or both compartments; day 3 after seeding
[18] = test system: normal colon derived epithelium monolayers; assay: Proinflammatory cytokine titration, barrier injury by TEER; type: cell-based, human; details: cCDM culture condition, 24 hours after cytokine addition
Description: FIG. 6 illustrates inducing barrier injury to normal colon derived epithelium monolayers on 96 well transwell plates in expansion (CNM) and combination (cCDM) culture conditions by serial titration of proinflammatory cytokines. All proinflammatory cytokines were used at the final concentrations listed on the graph regardless of combination. (A)-(H) illustrate transepithelial […] (TEER) in CNM and cCDM culture conditions. Data are represented as mean±SD for 3 technical replicates. […] EC50 dose response curves were calculated by Non-linear regression log(inhibitor) versus response variable slope (four parameters).
As IFN-γ has major impact in inducing barrier damage via JAK-STAT signalling pathway, we titrated different combinations of three indicated proinflammatory cytokines to resolve TNF-α and IL-1α synergy in combination with IFN-γ. […] The lower sensitivity of organoid-derived epithelium monolayers cultured in CNM correlated with a lower expression of IFN-γ receptor (IFNGR1) compared to the cCDM culture condition.

C[S+]([O-])c1ccc(-c2nc(-c3ccc(F)cc3)c(-c3ccncc3)[nH]2)cc1 (centres unmarked) [SB-203580]
concentration at which it is thought to inhibit ALK5 (ALK5 (TGF-βR1)): ≥ 10 µM

C[C@@H]1CCN(C(=O)CC#N)C[C@@H]1N(C)c1ncnc2[nH]ccc12 [tofacitinib]
pre-treatment concentration with which barrier integrity damage was completely restored [1]: higher than 0.1 μM
effect on TNF-α/IL-1α reduced barrier function integrity [2]: not inhibited or restored with highest tofacitinib concentration
inhibition of induced damage (TEER) ([2]; 5 hours): not completely inhibited even with highest tofacitinib concentration
restoration of induced damage (TEER) ([2]; 24 hours): restored after 24 hours
inhibition of cytokine-compromised LY permeability [3]: inhibited by tofacitinib in a dose responsive manner
EC50 ([4]; Homo sapiens, read-out: Permeability (EC50 of tofacitinib dose response, FIG. 7E), IFN-γ/TNF-α/IL-1α 1 ng/mL): 316 nM
concentration at which apparent permeability of LY was reduced ([4]; cytokine-treated colon monolayers): above 3 μM
inhibition of IFN-γ/TNF-α/IL-1α and IFN-γ/TNF-α barrier injury (TEER) [5]: inhibited by tofacitinib pre-treatment in a dose response manner
LY permeability after pre-treatment [6]: became impermeable again
inhibition of cytokine-compromised cell viability [7]: inhibited by tofacitinib in a dose responsive manner
inhibition of cytokine-compromised cell viability [8]: inhibited by tofacitinib in a dose responsive manner
pre-treatment concentration that maintained barrier function integrity ([9]; both cytokine combinations, TEER): above 3 μM
tofacitinib pre-treatment concentration that protected monolayers ([9]; colon): 2 µM
inhibition of TNF-α/IL-1α induced barrier function injury ([9]; highest tofacitinib concentration used): not inhibited by highest tofacitinib concentration used
protection from cytokine induced barrier injury ([9]; tofacitinib 0.1 μM pre-treatment): partially protected
protection from cytokine induced barrier injury ([9]; tofacitinib 2 μM pre-treatment): completely
inhibition of cytokine-compromised LY permeability [10]: inhibited by tofacitinib in a dose responsive manner
pre-treatment concentration that prevented cytokine induced cell death [11]: above 3 μM
tofacitinib pre-treatment concentration that protected monolayers [12]: 10 µM

C/C=C/C[C@@H](C)C(=O)[C@H]1C(=O)N[C@@H](C(C)C)C(=O)N(C)CC(=O)N(C)[C@@H](CC(C)C)C(=O)N[C@@H](C(C)C)C(=O)N(C)[C@@H](CC(C)C)C(=O)N[C@@H](C)C(=O)N[C@H](C)C(=O)N(C)[C@@H](CC(C)C)C(=O)N(C)[C@@H](CC(C)C)C(=O)N(C)[C@@H](C(C)C)C(=O)N1C [PSC833]
Calcein AM accumulation or efflux (P-gp [13]): did not show notable effects on Calcein AM accumulation or efflux
cellular accumulation of Calcein AM (P-gp [14]): Increased cellular accumulation of Calcein AM
cellular accumulation of Calcein AM (P-gp [15]): Increased cellular accumulation of Calcein AM
cellular accumulation of Rhodamine (P-gp [16]): Increased cellular accumulation of Rhodamine

COc1cc2ncnc(Nc3ccc(F)c(Cl)c3)c2cc1OCCCN1CCOCC1 [Gefitinib]
integrity of organoid-derived epithelial monolayers (TEER, Lucifer yellow permeability) [17]: compromised only when Gefitinib is added to the basolateral compartment

B1: IFN-γ: proinflammatory cytokine, single treatment (protein, UniProt P01579 24-161, looked up)
Interferon gamma: QDPYVKEAENLKKYFNAGHSDVADNGTLFLGILKNWKEESDRKIMQSQIVSFYFKLFKNFKDDQSIQKSVETIKEDMNVKFFNSNKKKRDDFEKLTNYSVTDLNVQRKAIHELIQVMAELSPAAKTGKRKRSQMLFRG
EC50 calculated from EC50 dose response curves (TEER) [18]: 3.71
